Numbers after ± are expanded uncertainties.
Test: activity coefficient (dimensionless); of the first substance listed, at infinite dilution; xn = mol fraction of the nth substance listed
Settings: 101 kPa, Liquid, Chromatography, x1 = 0

| Structure (SMILES) | activity coefficient (328.15 K) | activity coefficient (338.15 K) | activity coefficient (348.15 K) | activity coefficient (358.15 K) | activity coefficient (368.15 K) | activity coefficient (308.15 K) | activity coefficient (318.15 K) |
| --- | --- | --- | --- | --- | --- | --- | --- |
| CCc1ccccc1 [ethylbenzene] + CCCCCC[n+]1ccc2ccccc2c1.N#C[S-] | 3.08 ± 0.21 | 3.07 ± 0.21 | 3.07 ± 0.21 | 3.06 ± 0.21 | 3.05 ± 0.21 |  |  |
| CCCCCCC [heptane] + CCCCCC[n+]1ccc2ccccc2c1.N#C[S-] | 42.5 ± 2.9 | 38 ± 2.6 | 35.2 ± 2.4 | 32 ± 2.2 | 29.1 ± 2 | 53 ± 3.6 | 47 ± 3.2 |
| C=CCCCC [hex-1-ene] + CCCCCC[n+]1ccc2ccccc2c1.N#C[S-] | 16.9 ± 1.2 | 15.4 ± 1.1 | 14.4 ± 1 | 13.3 ± 0.9 | 12.3 ± 0.8 | 20.2 ± 1.4 | 18.2 ± 1.2 |
| CCCCCC [hexane] + CCCCCC[n+]1ccc2ccccc2c1.N#C[S-] | 35.6 ± 2.4 | 31.6 ± 2.2 | 28.3 ± 1.9 | 25.4 ± 1.7 | 23.1 ± 1.6 | 46.6 ± 3.2 | 40.5 ± 2.8 |
| CO [methanol] + CCCCCC[n+]1ccc2ccccc2c1.N#C[S-] | 0.381 ± 0.033 | 0.378 ± 0.033 | 0.375 ± 0.033 | 0.376 ± 0.033 | 0.37 ± 0.033 |  |  |
| CC1CCCCC1 [methylcyclohexane] + CCCCCC[n+]1ccc2ccccc2c1.N#C[S-] | 19.8 ± 1.4 | 17.7 ± 1.2 | 16.4 ± 1.1 | 15.2 ± 1 | 14 ± 1 | 24.2 ± 1.7 | 21.5 ± 1.5 |
| CCCCCCCCC [nonane] + CCCCCC[n+]1ccc2ccccc2c1.N#C[S-] | 68.2 ± 4.7 | 62.5 ± 4.3 | 59 ± 4 | 54.5 ± 3.7 | 51.3 ± 3.5 | 79.7 ± 5.5 | 73.2 ± 5 |
| C=CCCCCCC [oct-1-ene] + CCCCCC[n+]1ccc2ccccc2c1.N#C[S-] | 27.1 ± 1.9 | 25.6 ± 1.8 | 24.4 ± 1.7 | 23.2 ± 1.6 | 22.2 ± 1.5 | 30.2 ± 2.1 | 28.5 ± 1.9 |
| CCCCCCCC [octane] + CCCCCC[n+]1ccc2ccccc2c1.N#C[S-] | 53.3 ± 3.7 | 48.3 ± 3.3 | 45.7 ± 3.1 | 42.1 ± 2.9 | 38.6 ± 2.6 | 64.1 ± 4.4 | 58 ± 4 |
| CCCC(C)=O [pentan-2-one] + CCCCCC[n+]1ccc2ccccc2c1.N#C[S-] | 2.1 ± 0.14 | 2.11 ± 0.14 | 2.12 ± 0.14 | 2.12 ± 0.14 | 2.13 ± 0.14 |  |  |
| CCC(=O)CC [pentan-3-one] + CCCCCC[n+]1ccc2ccccc2c1.N#C[S-] | 2.1 ± 0.14 | 2.11 ± 0.14 | 2.13 ± 0.14 | 2.15 ± 0.15 | 2.15 ± 0.15 |  |  |
| CCCO [propan-1-ol] + CCCCCC[n+]1ccc2ccccc2c1.N#C[S-] | 0.693 ± 0.047 | 0.681 ± 0.046 | 0.671 ± 0.045 | 0.664 ± 0.045 | 0.653 ± 0.045 |  |  |
| c1ccncc1 [pyridine] + CCCCCC[n+]1ccc2ccccc2c1.N#C[S-] | 0.703 ± 0.047 | 0.713 ± 0.048 | 0.722 ± 0.048 | 0.729 ± 0.048 | 0.745 ± 0.049 |  |  |
| C1CCOC1 [tetrahydrofuran] + CCCCCC[n+]1ccc2ccccc2c1.N#C[S-] | 1.46 ± 0.1 | 1.47 ± 0.1 | 1.48 ± 0.1 | 1.48 ± 0.1 | 1.5 ± 0.1 |  |  |
| c1ccsc1 [thiophene] + CCCCCC[n+]1ccc2ccccc2c1.N#C[S-] | 0.921 ± 0.058 | 0.943 ± 0.059 | 0.963 ± 0.061 | 0.98 ± 0.06 | 0.998 ± 0.062 |  |  |
| Cc1ccccc1 [toluene] + CCCCCC[n+]1ccc2ccccc2c1.N#C[S-] | 2.05 ± 0.14 | 2.07 ± 0.14 | 2.08 ± 0.14 | 2.1 ± 0.14 | 2.11 ± 0.14 |  |  |
| O [water] + CCCCCC[n+]1ccc2ccccc2c1.N#C[S-] | 0.401 ± 0.034 | 0.406 ± 0.034 | 0.41 ± 0.03 | 0.399 ± 0.034 | 0.418 ± 0.035 |  |  |
